In patent US20240041877A1, “DOSAGE REGIME AND METHOD FOR TREATING PULMONARY ARTERIAL HYPERTENSION” (Altavant Sciences GmbH, priority 2019, published 2024):

Experiment: Part 2 (MAD): plasma pharmacokinetics after BID oral KAR5585 for 14 days (incl. accumulation ratios and dose proportionality)
Conditions: for AUC0-12, Day 1 / AUC0-24, Day 14: mean
[1] = 100 mg KAR5585 BID, fasted, Part 2 Cohort 1
[2] = 100 mg KAR5585 BID, fed, Cohort 2
[3] = 100 mg KAR5585 BID, fed, Part 2 Cohort 2
[4] = 100 mg/dose Fasted Cohort 1, Day 1 AM, Geo. Mean
[5] = 100 mg/dose Fasted Cohort 1, Day 1 AM, Mean
[6] = 100 mg/dose Fasted Cohort 1, Day 14, Geo. Mean
[7] = 100 mg/dose Fasted Cohort 1, Day 14, Mean
[8] = 100 mg/dose Fed Cohort 2, Day 1 AM, Geo. Mean
[9] = 100 mg/dose Fed Cohort 2, Day 1 AM, Mean
[10] = 100 mg/dose Fed Cohort 2, Day 1 PM, Geo. Mean
[11] = 100 mg/dose Fed Cohort 2, Day 1 PM, Mean
[12] = 100 mg/dose Fed Cohort 2, Day 7 AM, Geo Mean
[13] = 100 mg/dose Fed Cohort 2, Day 7 AM, Mean
[14] = 100 mg/dose Fed Cohort 2, Day 7 PM, Geo Mean
[15] = 100 mg/dose Fed Cohort 2, Day 7 PM, Mean
[16] = 100 mg/dose Fed Cohort 2, Day 14, Geo Mean
[17] = 100 mg/dose Fed Cohort 2, Day 14, Mean
[18] = 200 mg/dose Fed Cohort 3, Day 1 AM, Geo Mean
[19] = 200 mg/dose Fed Cohort 3, Day 1 AM, Mean
[20] = 200 mg/dose Fed Cohort 3, Day 1 PM, Geo. Mean

Text: Food effect was to be evaluated in Part 1, Period 2.
Pharmacokinetic data were to be summarized descriptively.

For `CCOC(=O)[C@@H]1CC2(CCN(c3cc(O[C@H](c4ccc(Cl)cc4-c4ccccc4)C(F)(F)F)nc(N)n3)CC2)CN1` [KAR5585, (S)-ethyl 8-(2-amino-6-((R)-1-(5-chloro-[1,1′-biphenyl]-2-yl)-2,2,2-trifluoroethoxy)pyrimidin-4-yl)-2,8-diazaspiro[4.5]decane-3-carboxylate], the “half-life, Day 14” value (100 mg KAR5585 BID, fasted) was 2.49 h, the “time peak plasma concentrations were reached, Day 1” value (100 mg KAR5585 BID, fasted, Cohort 1) was 0.75 to 2.0 h and the “AUC0-12, Day 1” value [1] was 62.8 ng·h/mL. For the same compound, the “AUC0-24, Day 14” value [1] was 99.8 ng·h/mL, the “Mean CL/F, Day 1” value (100 mg KAR5585 BID, fed) was 2100 L/h and the “Mean steady-state CL/F, Day 14” value (100 mg KAR5585 BID, fed) was 880 L/h. For the same compound, the “mean apparent elimination half-life, Day 14” value (100 mg KAR5585 BID, fed) was 2.73 h, the “Cmax (peak mean concentration), Day 1” value [2] was 18.4 ng/mL and the “Cmax (peak mean concentration), Day 14” value [2] was 30 ng/mL. The “mean Cmax plasma concentrations, range on all dosing days” value [2] was 18.4 to 44.1 ng/mL, the “median time to peak plasma concentrations, range on all dosing days and times” value [2] was 0.75 to 4 h and the “AUC0-12, Day 1” value [3] was 55.5 ng·h/mL. For the same compound, the “AUC0-24, Day 14” value [3] was 122 ng·h/mL, the C12 [4] was “BLQ” and the CL/F [4] was 1850 L/h. The Cmax/D [4] was 0.158 (ng/mL)/mg, the AUC0-12 [5] was 62.8 ng·h/mL and the “AUC0-∞” value [5] was 71.1 ng·h/mL. The C12 [5] was “BLQ”, the CL/F [5] was 2380 L/h and the Cmax/D [5] was 0.167 (ng/mL)/mg. The t1/2 [5] was 2.23 h, the AUC0-12 [6] was 78.2 ng·h/mL and the AUC0-24 [6] was 82.3 ng·h/mL. For the same compound, the AUC0-24/D [6] was 0.823 (hr*ng/mL)/mg, the “AUC0-∞” value [6] was 85 ng·h/mL and the C24 [6] was “BLQ”. The CL/F [6] was 1280 L/h, the Cmax [6] was 20.1 ng/mL and the Cmax/D [6] was 0.201 (ng/mL)/mg. It also gave a t1/2 [6] of 2.36 h, an AUC0-12 [7] of 92.4 ng·h/mL and an AUC0-24 [7] of 99.8 ng·h/mL. The AUC0-24/D [7] was 0.998 (hr*ng/mL)/mg, the “AUC0-∞” value [7] was 105 ng·h/mL and the C24 [7] was “BLQ”. For the same compound, the CL/F [7] was 1450 L/h, the Cmax/D [7] was 0.213 (ng/mL)/mg and the t1/2 [7] was 2.49 h. For the same compound, the AUC0-12 [8] was 51.2 ng·h/mL, the “AUC0-∞” value [8] was 51.7 ng·h/mL and the C12 [8] was “BLQ”. For the same compound, the CL/F [8] was 1940 L/h, the Cmax [8] was 17.7 ng/mL and the Cmax/D [8] was 0.177 (ng/mL)/mg. The t1/2 [8] was 1.37 h, the AUC0-12 [9] was 55.5 ng·h/mL and the “AUC0-∞” value [9] was 55.9 ng·h/mL. The C12 [9] was “BLQ”, the CL/F [9] was 2100 L/h and the Cmax [9] was 18.4 ng/mL. For the same compound, the Cmax/D [9] was 0.184 (ng/mL)/mg, the t1/2 [9] was 1.42 h and the AUC0-12 [10] was 136 ng·h/mL. The AUC0-24 [10] was 214 ng·h/mL, the AUC0-24/D [10] was 1.07 (hr*ng/mL)/mg and the “AUC0-∞” value [10] was 152 ng·h/mL. For the same compound, the CL/F [10] was 658 L/h, the Cmax [10] was 39.8 ng/mL and the Cmax/D [10] was 0.398 (ng/mL)/mg. It also gave a t1/2 [10] of 1.82 h, an AUC0-12 [11] of 143 ng·h/mL and an AUC0-24 [11] of 226 ng·h/mL. The AUC0-24/D [11] was 1.13 (hr*ng/mL)/mg, the “AUC0-∞” value [11] was 156 ng·h/mL and the CL/F [11] was 675 L/h. For the same compound, the Cmax [11] was 44.1 ng/mL, the Cmax/D [11] was 0.441 (ng/mL)/mg and the t1/2 [11] was 1.87 h. The AUC0-12 [12] was 127 ng·h/mL, the “AUC0-∞” value [12] was 137 ng·h/mL and the C12 [12] was “BLQ”. The CL/F [12] was 788 L/h, the Cmax [12] was 29.8 ng/mL and the Cmax/D [12] was 0.298 (ng/mL)/mg. The t1/2 [12] was 2.82 h, the AUC0-12 [13] was 129 ng·h/mL and the “AUC0-∞” value [13] was 139 ng·h/mL. The C12 [13] was “BLQ”, the CL/F [13] was 800 L/h and the Cmax [13] was 31.3 ng/mL. The Cmax/D [13] was 0.313 (ng/mL)/mg, the t1/2 [13] was 2.86 h and the AUC0-12 [14] was 142 ng·h/mL. For the same compound, the AUC0-24 [14] was 278 ng·h/mL, the AUC0-24/D [14] was 1.39 (hr*ng/mL)/mg and the “AUC0-∞” value [14] was 168 ng·h/mL. The C12 [14] was 6.27 ng/mL, the CL/F [14] was 699 L/h and the Cmax [14] was 25.8 ng/mL. The Cmax/D [14] was 0.258 (ng/mL)/mg, the t1/2 [14] was 3.52 h and the AUC0-12 [15] was 145 ng·h/mL. The AUC0-24 [15] was 282 ng·h/mL, the AUC0-24/D [15] was 1.41 (hr*ng/mL)/mg and the “AUC0-∞” value [15] was 173 ng·h/mL. For the same compound, the CL/F [15] was 717 L/h, the Cmax/D [15] was 0.284 (ng/mL)/mg and the t1/2 [15] was 3.80 h. The AUC0-12 [16] was 114 ng·h/mL, the AUC0-24 [16] was 121 ng·h/mL and the AUC0-24/D [16] was 1.21 (hr*ng/mL)/mg. For the same compound, the “AUC0-∞” value [16] was 121 ng·h/mL, the C12 [16] was “BLQ” and the C24 [16] was “BLQ”. For the same compound, the CL/F [16] was 874 L/h, the Cmax [16] was 28.5 ng/mL and the Cmax/D [16] was 0.285 (ng/mL)/mg. The t1/2 [16] was 2.64 h, the AUC0-12 [17] was 115 ng·h/mL and the AUC0-24 [17] was 122 ng·h/mL. For the same compound, the AUC0-24/D [17] was 1.22 (hr*ng/mL)/mg, the “AUC0-∞” value [17] was 122 ng·h/mL and the C12 [17] was “BLQ”. The C24 [17] was “BLQ”, the CL/F [17] was 880 L/h and the Cmax [17] was 30.0 ng/mL. For the same compound, the Cmax/D [17] was 0.300 (ng/mL)/mg, the t1/2 [17] was 2.73 h and the “Mean CL/F, Day 1” value (200 mg KAR5585 BID, fed) was 830 L/h. For the same compound, the “Mean steady-state CL/F, Day 14” value (200 mg KAR5585 BID, fed) was 1200 L/h, the “mean Cmax plasma concentrations, range on all dosing days” value (200 mg KAR5585 BID, fed, Cohort 3) was 42.6 to 90.9 ng/mL and the AUC0-12 [18] was 243 ng·h/mL. For the same compound, the “AUC0-∞” value [18] was 258 ng·h/mL, the C12 [18] was 5.60 ng/mL and the CL/F [18] was 774 L/h. The Cmax [18] was 80.7 ng/mL, the Cmax/D [18] was 0.403 (ng/mL)/mg and the t1/2 [18] was 2.81 h. The AUC0-12 [19] was 257 ng·h/mL, the “AUC0-∞” value [19] was 275 ng·h/mL and the C12 [19] was 5.61 ng/mL. The CL/F [19] was 830 L/h, the Cmax [19] was 87.8 ng/mL and the Cmax/D [19] was 0.439 (ng/mL)/mg. The t1/2 [19] was 2.91 h, the AUC0-12 [20] was 333 ng·h/mL and the AUC0-24 [20] was 583 ng·h/mL. The AUC0-24/D [20] was 1.46 (hr*ng/mL)/mg.
